Data: patent US20060100226A1, “2-Thiopyrimidinones as therapeutic agents” (priority 2004, published 2006)

Molecular target: T1, murine MEKK2 (mMEKK2) (Mus musculus, UniProt Q61083)
T1 sequence (Q61083 1-619): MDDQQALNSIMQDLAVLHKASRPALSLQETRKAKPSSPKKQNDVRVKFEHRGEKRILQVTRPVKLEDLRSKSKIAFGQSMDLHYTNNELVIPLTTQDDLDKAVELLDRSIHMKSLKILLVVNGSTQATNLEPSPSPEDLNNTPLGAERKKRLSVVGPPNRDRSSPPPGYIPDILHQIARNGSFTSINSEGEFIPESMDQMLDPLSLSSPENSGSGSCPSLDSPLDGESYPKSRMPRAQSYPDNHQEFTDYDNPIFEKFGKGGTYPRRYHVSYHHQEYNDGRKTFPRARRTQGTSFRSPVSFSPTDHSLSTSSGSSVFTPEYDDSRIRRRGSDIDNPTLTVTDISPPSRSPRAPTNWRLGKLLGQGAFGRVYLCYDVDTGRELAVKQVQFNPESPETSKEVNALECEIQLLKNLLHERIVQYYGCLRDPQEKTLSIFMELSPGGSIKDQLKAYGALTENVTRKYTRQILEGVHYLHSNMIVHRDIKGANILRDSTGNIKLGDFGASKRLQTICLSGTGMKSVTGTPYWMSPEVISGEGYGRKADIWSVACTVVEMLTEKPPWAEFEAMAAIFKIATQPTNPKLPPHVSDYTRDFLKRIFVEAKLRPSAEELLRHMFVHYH
Assay: TR-FRET kinase assay (mMEKK2/MBP)
Assay type: biochemical
Conditions: substrate biotin MBP, 60 minutes at room temperature
Protocol: In one approach, MEKK2 inhibitory activity of compounds of the invention can be assessed using the time-resolved Fluorescence Resonance Energy Transfer (TR-FRET) assay detailed in Example 5. In this assay, the excitation energy of one fluorescent molecule (the donor) is transferred by a resonance mechanism to a nearby second fluorescent molecule (the acceptor), which then releases its fluorescent energy through fluorescent emission. This fluorescent energy is measured using a time-resolved fluorescence measurement protocol (LANCE high count 615/665); excitation occurred with 1,000 flashes at 325 nm, measurement was delayed by 100 μs, and data were acquired for 50 μs at 615 and 665 nm.
A TR-FRET kinase assay was used to screen potential inhibitors of MEKK2. The assay was performed as follows: Compounds to be tested were weighed and solubilized in DMSO (Sigma) to a stock concentration of 10 mM. Serial dilutions starting from 1 mM were prepared with additional DMSO. These dilutions were further diluted to 250 μM in kinase reaction buffer [20 mM Hepes pH 7.5, 5 mM MgCl2, 1 mM DTT (Dithiothreitol-Sigma), 1 mM NaVO4 (sodium vanadate-Sigma). A 25 μl aliquot of this solution was transferred to a black 96-well nonbinding surface microplate (Fisher). A stock aliquot containing […] of murine MEKK2 (mMEKK2) was diluted in the kinase reaction buffer and incubated with the compounds on the microplate for 10 minutes. A 25 μl aliquot of a 138 ng solution of biotin MBP (myelin basic protein—Upstate Biotechnology) was added to the reaction followed by 25 ul of a 25 ng solution of anti-phospho MBP antibody (Upstate Biotechnology) diluted in kinase reaction buffer. Finally an aliquot (50 μl) of a 5 uM solution of ATP (adenosine triphosphate) was added and the reaction was allowed to proceed for 60 minutes at room temperature. The reaction was stopped by the addition of 50 μL of a 12.5 ng solution of europium labeled anti-mouse IgG (Perkin Elmer) and 45 ng of Cy5 labeled streptavidin (Jackson Immunoresearch) in termination buffer (20 mM Hepes pH 7.5, 100 mM EDTA; Sigma). The assay was allowed to equilibrate for 45 minutes before placing the plate on the Victor™ plate reader. The plate was read using the 615/665 LANCE protocol.

COc1cccc(-c2nc(SCc3cccc(NCc4ccc(-c5cccs5)s4)c3)[nH]c(=O)c2C#N)c1 [Example 1aa]
IC50: < 1 µM

COc1cccc(-c2nc(SCc3cccc(NCc4cccc(Oc5ccccc5)c4)c3)[nH]c(=O)c2C#N)c1 [Example 1bb]
IC50: < 1 µM

COc1cccc(-c2nc(SCc3cccc(NCc4cccc(Oc5cccc(C(F)(F)F)c5)c4)c3)[nH]c(=O)c2C#N)c1 [Example 1dd]
IC50: < 1 µM

COc1cc(CNc2cccc(CSc3nc(-c4cccc(OC)c4)c(C#N)c(=O)[nH]3)c2)cc(OC)c1 [Example 1e]
IC50: < 20 µM

COc1cccc(-c2nc(SCc3cccc(NCc4coc5cc(C)cc(C)c5c4=O)c3)[nH]c(=O)c2C#N)c1 [Example 1f]
IC50: < 5 µM

COc1cccc(-c2nc(SCc3cccc(NCc4nc5ccccc5n4C)c3)[nH]c(=O)c2C#N)c1 [Example 1g]
IC50: < 40 µM

COc1cccc(-c2nc(SCc3cccc(NCc4ccccc4N4CCOCC4)c3)[nH]c(=O)c2C#N)c1 [Example 1h]
IC50: < 5 µM

COc1cccc(-c2nc(SCc3cccc(NCc4ccc(N5CCCCC5)cc4)c3)[nH]c(=O)c2C#N)c1 [Example 1i]
IC50: < 10 µM

COc1cccc(-c2nc(SCc3cccc(NC[C@H]4CCCN4C(=O)OC(C)(C)C)c3)[nH]c(=O)c2C#N)c1 [Example 1j]
IC50: < 20 µM

COc1cccc(-c2nc(SCc3cccc(NCc4cccn4CCC#N)c3)[nH]c(=O)c2C#N)c1 [Example 1l]
IC50: < 20 µM

COc1cccc(-c2nc(SCc3cccc(NCc4ccc(Oc5cnccn5)cc4)c3)[nH]c(=O)c2C#N)c1 [Example 1m]
IC50: < 20 µM

COc1cccc(-c2nc(SCc3cccc(NCc4ccc(OC)nc4)c3)[nH]c(=O)c2C#N)c1 [Example 1n]
IC50: < 40 µM

COc1cccc(-c2nc(SCc3cccc(NCC4CCOCC4)c3)[nH]c(=O)c2C#N)c1 [Example 1o]
IC50: > 40 µM

COc1cccc(-c2nc(SCc3cccc(NCc4ccc(-c5cc(C(F)(F)F)n(C)n5)s4)c3)[nH]c(=O)c2C#N)c1 [Example 1q]
IC50: < 1 µM

COc1cccc(-c2nc(SCc3cccc(NCc4ccc(-n5ccnc5)cc4)c3)[nH]c(=O)c2C#N)c1 [Example 1r]
IC50: < 20 µM

COc1cccc(-c2nc(SCc3cccc(NCc4c(C(F)(F)F)nn(C)c4Cl)c3)[nH]c(=O)c2C#N)c1 [Example 1s]
IC50: < 10 µM

COc1cccc(-c2nc(SCc3cccc(NCc4ccc(N(C)C)c(C#N)c4F)c3)[nH]c(=O)c2C#N)c1 [Example 1t]
IC50: < 5 µM

COc1cccc(-c2nc(SCc3cccc(NCc4ccc(C#N)cc4)c3)[nH]c(=O)c2C#N)c1 [Example 1u]
IC50: < 10 µM

COc1cccc(-c2nc(SCc3cccc(NCc4cc(C)c(C)o4)c3)[nH]c(=O)c2C#N)c1 [Example 1w]
IC50: < 5 µM

COc1cccc(-c2nc(SCc3cccc(NCc4c[nH]c5ccc(Cl)cc45)c3)[nH]c(=O)c2C#N)c1 [Example 1x]
IC50: < 1 µM

COc1cccc(-c2nc(SCc3cccc(NCc4ccc5nsnc5c4)c3)[nH]c(=O)c2C#N)c1 [Example 1y]
IC50: < 10 µM

COc1cccc(-c2nc(SCc3cccc(NCc4cnc(N(C)C)nc4)c3)[nH]c(=O)c2C#N)c1 [Example 1z]
IC50: < 40 µM

COc1cccc(-c2nc(SCc3cccc(NC(=O)c4cccc(Cl)c4)c3)[nH]c(=O)c2C#N)c1 [Example 2a, 3-Chloro-N-{3-[5-cyano-4-(3-methoxy-phenyl)-6-oxo-1,6-dihydro-pyrimidin-2-ylsulfanylmethyl]-phenyl}-benzamide]
IC50: < 5 µM

COc1cccc(-c2nc(SCc3ccc(NC(=O)c4sccc4Cl)cc3)[nH]c(=O)c2C#N)c1 [Example 2aaa]
IC50: < 5 µM

COc1cccc(-c2nc(SCc3cccc(NC(=O)c4ccc(C)cc4)c3)[nH]c(=O)c2C#N)c1 [Example 2b]
IC50: < 5 µM

CCCc1c(C(=O)Nc2ccc(CSc3nc(-c4cccc(OC)c4)c(C#N)c(=O)[nH]3)cc2)cnn1-c1ccc(Cl)cc1 [Example 2bbb]
IC50: < 1 µM

COc1cccc(-c2nc(SCc3cccc(NC(=O)c4ccccc4)c3)[nH]c(=O)c2C#N)c1 [Example 2c]
IC50: < 5 µM

COc1cccc(-c2nc(SCc3cccc(NC(=O)c4ccc5ccccc5c4)c3)[nH]c(=O)c2C#N)c1 [Example 2d]
IC50: < 5 µM

COc1cccc(-c2nc(SCc3ccc(NC(=O)c4cccc(OC(F)(F)F)c4)cc3)[nH]c(=O)c2C#N)c1 [Example 2ddd]
IC50: < 5 µM

COc1cccc(-c2nc(SCc3cccc(NC(=O)CCc4ccccc4)c3)[nH]c(=O)c2C#N)c1 [Example 2e]
IC50: < 5 µM

COc1cccc(-c2nc(SCc3ccc(NC(=O)c4cc(C(F)(F)F)cc(Cl)c4F)cc3)[nH]c(=O)c2C#N)c1 [Example 2eee]
IC50: < 5 µM

COc1cccc(CC(=O)Nc2cccc(CSc3nc(-c4cccc(OC)c4)c(C#N)c(=O)[nH]3)c2)c1 [Example 2f]
IC50: < 10 µM

COc1cccc(-c2nc(SCc3ccc(NC(=O)c4cnn(-c5ccccc5)c4C(F)(F)F)cc3)[nH]c(=O)c2C#N)c1 [Example 2fff]
IC50: < 5 µM

COc1cccc(-c2nc(SCc3cccc(NC(=O)c4cccc(C(F)(F)F)c4)c3)[nH]c(=O)c2C#N)c1 [Example 2g]
IC50: < 5 µM

COc1cccc(-c2nc(SCc3ccc(NC(=O)c4ccc(C(F)(F)F)cc4C(F)(F)F)cc3)[nH]c(=O)c2C#N)c1 [Example 2ggg]
IC50: < 5 µM

COc1cccc(-c2nc(SCc3ccc(NC(=O)c4snnc4C)cc3)[nH]c(=O)c2C#N)c1 [Example 2hhh]
IC50: < 40 µM

COc1cccc(-c2nc(SCc3ccc(NC(=O)C4=Cc5cc(Cl)ccc5OC4)cc3)[nH]c(=O)c2C#N)c1 [Example 2iii]
IC50: < 5 µM

COc1cccc(-c2nc(SCc3cccc(NC(=O)COc4ccc(Cl)cc4)c3)[nH]c(=O)c2C#N)c1 [Example 2j]
IC50: < 5 µM

COc1cccc(-c2nc(SCc3ccc(NC(=O)C4CCN(C(C)=O)CC4)cc3)[nH]c(=O)c2C#N)c1 [Example 2jjj]
IC50: < 20 µM

COc1cccc(-c2nc(SCc3cccc(NC(=O)Cc4ccccc4)c3)[nH]c(=O)c2C#N)c1 [Example 2k]
IC50: < 10 µM

COc1cccc(-c2nc(SCc3ccc(NC(=O)c4cc(C(F)(F)F)cc(C(F)(F)F)c4)cc3)[nH]c(=O)c2C#N)c1 [Example 2kkk]
IC50: < 5 µM

COc1cccc(-c2nc(SCc3cccc(NC(=O)Cc4ccc(Cl)cc4)c3)[nH]c(=O)c2C#N)c1 [Example 2l]
IC50: < 5 µM

COc1cccc(-c2nc(SCc3ccc(NC(=O)c4ccc(-c5ccccn5)s4)cc3)[nH]c(=O)c2C#N)c1 [Example 2lll]
IC50: < 5 µM

COc1cccc(-c2nc(SCc3cccc(NC(=O)c4cc5ccccc5s4)c3)[nH]c(=O)c2C#N)c1 [Example 2m]
IC50: < 5 µM

COc1cccc(-c2nc(SCc3ccccc3NC(=O)Cc3ccccc3)[nH]c(=O)c2C#N)c1 [Example 2mmm]
IC50: < 40 µM

COc1cccc(-c2nc(SCc3ccccc3NC(=O)c3ccccc3)[nH]c(=O)c2C#N)c1 [Example 2nnn]
IC50: < 40 µM

COc1cccc(-c2nc(SCc3cccc(NC(=O)c4ccc5c(c4)OCO5)c3)[nH]c(=O)c2C#N)c1 [Example 2o]
IC50: < 5 µM

COc1cccc(-c2nc(SCc3ccccc3NC(=O)c3cccc(C(F)(F)F)c3)[nH]c(=O)c2C#N)c1 [Example 2ooo]
IC50: > 40 µM

COc1cccc(-c2nc(SCc3cccc(NC(=O)c4cc(Cl)cc(Cl)c4)c3)[nH]c(=O)c2C#N)c1 [Example 2p]
IC50: < 5 µM

COc1cccc(-c2nc(SCc3ccc(NC(=O)c4ccccc4)cc3)[nH]c(=O)c2C#N)c1 [Example 2pp]
IC50: < 20 µM

COc1cccc(-c2nc(SCc3cccc(NC(=O)c4cc(C(C)(C)C)nn4C)c3)[nH]c(=O)c2C#N)c1 [Example 2q]
IC50: < 5 µM

COc1cccc(-c2nc(SCc3ccc(NC(=O)c4ccc(OC(F)(F)F)cc4)cc3)[nH]c(=O)c2C#N)c1 [Example 2qq]
IC50: < 5 µM

COc1cccc(-c2nc(SCc3cccc(NC(=O)c4cc(C)on4)c3)[nH]c(=O)c2C#N)c1 [Example 2r]
IC50: < 20 µM
